# From patent US9907838B2, “Composition and methods for treating ischemic damage” (GEMVAX & KAEL CO., LTD., priority 2013, dated 2018)
# Legend:
# [1] = system: renal ischemic-reperfusion injury mouse model; assay: Inflammatory cytokine levels (IL-6, MCP-1, TNF-α) in renal tissue, renal ischemic-reperfusion injury mouse model; format: in vivo, C57BL/6 mouse; conditions: protein extracted from renal tissue 24 hours after ischemic reperfusion; 1000 nmol/kg twice; compared to PBS control group
# Description: (§1) A renal ischemic-reperfusion injury mouse model was established by inducing ischemic reperfusion by bilaterally clamping renal pedicles for 30 minutes and restoring blood flow 30 minutes later by removing the clamps. Test groups were divided into an administered group (PEP 1), a control group (PBS without PEP 1), and a sham group (no bilateral clamping). PEP 1 was […] injected at a concentration of 1000 nmol/kg 30 minutes before and 12 hours after the induction of ischemic reperfusion.
# (§2) C57BL/6 mouse (8 weeks old; Charles River Laboratories, Wilmington, Mass.) was used to induce renal ischemic-reperfusion injury. After blocking blood flow by clamping the renal pedicles with vascular forceps and inducing ischemia for […], reperfusion was performed.
# (§3) The peptide PEP 1 was diluted in PBS to a concentration of 1000 nmol/kg and intraperitoneally (i.p.) injected twice 30 minutes before and 12 hours after the ischemic reperfusion. The test was conducted for the administered group (PEP 1), the control group (PBS), and the sham group (no ischemic reperfusion).
# (§4) Blood was taken 24 hours after the ischemic reperfusion and the levels of blood urea nitrogen (BUN) and creatine as renal toxicity markers were measured. Renal tissue was taken and prepared into paraffin blocks for immunohistochemical and histological studies. Then, proteins were extracted and the levels of cytokines were measured. The concentrations of creatine and BUN were measured using an autoanalyzer (Technicon RA-1000; Bayer, Tarrytown, N.Y.).
# Protein was extracted from renal tissue 24 hours after the ischemic reperfusion and the levels of IL-6, MCP-1 and TNF-α were measured according to the cytometric bead array method. Mouse IL-6, MCP-1, TNF-α ELISA kits were purchased from R&D Systems and the test was conducted according to the manufacturer's protocol.
# [2] = system: renal ischemic-reperfusion injury mouse model; assay: Renal apoptosis by TUNEL staining in renal ischemic-reperfusion injury mouse model; format: in vivo, C57BL/6 mouse; conditions: 24 hours after ischemic reperfusion; 1000 nmol/kg 30 minutes before and 12 hours after IR; compared to PBS control group
# Description: as §1, §2, §3
# Renal apoptosis was evaluated by staining renal tissue with TUNEL stain 24 hours after the ischemic reperfusion. Renal paraffin sections were stained with TUNEL using a TUNEL staining kit (Roche Applied Science, Indianapolis, Ind., USA).
# [3] = system: renal ischemic-reperfusion injury mouse model; assay: Renal tissue injury scoring after PAS staining in renal ischemic-reperfusion injury mouse model; format: in vivo, C57BL/6 mouse; conditions: 24 hours after ischemic reperfusion; 1000 nmol/kg 30 minutes before and 12 hours after IR; compared to PBS control group
# Description: as §1, §2, §3
# Renal tissue was stained with periodic acid-Schiff (PAS) stain according to the protocol of the manufacturer (Polysciences, Inc., Warrington, Pa., USA) 24 hours after the ischemic reperfusion. After the staining, renal tissue injury was evaluated through renal tissue injury scoring.
# [4] = system: renal ischemic-reperfusion injury mouse model; assay: Infiltration of innate immune cells (F4/80, Gr-1 staining) in renal tissue, renal ischemic-reperfusion injury mouse model; format: in vivo, C57BL/6 mouse; conditions: 24 hours after ischemic reperfusion; 1000 nmol/kg 30 minutes before and 12 hours after IR; compared to PBS control group
# Description: as §1, §2, §3
# Infiltration of innate immune cells was evaluated by immnohistologically staining renal tissue with F4/80 (macrophage maker) and Gr-1 (neutrophil maker) 24 hours after the ischemic reperfusion. […]
# [5] = system: rat model of ischemic-reperfusion injury (abdominal skin flaps); assay: Flap survivability in rat skin flap model of ischemic-reperfusion injury; format: in vivo, Sprague-Dawley rats; conditions: 7 days after induction of ischemic reperfusion; 10 mg/500 μL intramuscularly 30 minutes before and 1, 2, 3, 4, 5 and 7 days after; PBS-treated group 34.69%±16.44%; p<0.05
# Description: A rat model of ischemic-reperfusion injury was established by acquiring 5 cm×5 cm skin flaps from the abdomen of Sprague-Dawley rats (weighing 180-230 g), administering PEP1 or saline, inducing local ischemia through clamping and then restoring blood flow 7 hours later by removing the clamps (see FIG. 11).
# Test groups were divided into an administered group (PEP 1), a control group (PBS without PEP 1), and a sham group (no ischemic-reperfusion injury induced). PEP 1 (10 mg/500 μL) or PBS (500 μL) was intramuscularly injected 30 minutes before and 1, 2, 3, 4, 5 and 7 days after the induction of ischemic reperfusion.
# Flap survivability was measured 7 days after the induction of ischemic reperfusion. The flap survival rate was measured through analysis of digital images using the imageJ program.
# [6] = system: renal ischemic-reperfusion injury mouse model; assay: Renal failure markers (BUN and creatine) in renal ischemic-reperfusion injury mouse model; format: in vivo, C57BL/6 mouse; conditions: blood 24 hours after ischemic reperfusion; 1000 nmol/kg 30 minutes before and 12 hours after IR; compared to PBS control group
# Description: as §1, §2
# The peptide PEP 1 was diluted in PBS to a concentration of 1000 nmol/kg and intraperitoneally (i.p.) injected twice 30 minutes before and 12 hours after the ischemic reperfusion. […]
# as §4, with “Renal tissue was taken and prepared into paraffin blocks for immunohistochemical and histological studies.” left out
sequence,measurement,setting,value
EARPALLTSRLRFIPK (listed as Homo sapiens) [PEP 1],IL-6 level in renal tissue,[1],significantly decreased
same,MCP-1 level in renal tissue,[1],significantly decreased
same,TNF-α level in renal tissue,[1],no significant difference
same,TUNEL-positive cells in renal tissue,[2],remarkably decreased
same,"renal tissue injury (renal tissue injury scoring, PAS stain)",[3],remarkably decreased
same,infiltration of macrophages (F4/80) into renal tissue,[4],remarkably decreased
same,infiltration of neutrophils (Gr-1) into renal tissue,[4],remarkably decreased
same,flap survival rate,[5],58.88%±11.44%
same,blood urea nitrogen (BUN) level,[6],significantly decreased
same,creatine level,[6],significantly decreased
